Results as given in US20260151518A1, “LEUKOCYTE-SPECIFIC CELL PENETRATING MOLECULES” (Amytrx Therapeutics, Inc., priority 2021, published 2026).

Key:
[1] = system: Human whole blood (WB); assay: Flow cytometry of human whole blood incubated with FITC-labelled peptide; format: cell-based
Experimental: It was originally believed that the SSHR on AMTX-100 could enter cells without a receptor, energy or endocytosis. However, in studies performed by the present inventors, an AMTX-100-related peptide with a double-null knockout for Importin α/Importin β complex and Importin β obtained by amino acid substitution and also containing a FITC molecule (FITC-SMTX-100), was incubated with human blood and analyzed by flow cytometry.
Because there appeared to be a concentration of radioactivity in organs with immune cells, a series of flow cytometry experiments was initiated with human blood. All cells were first stained with FITC-AMTX-100 and then incubated with immunotyping reagents that separated hematopoietic cells into broad categories of RBCs, granulocytes, monocytes, B- and T-lymphocytes, and NK cells. […] Again, a highly unexpected finding for a peptide which is “purported” to be a promiscuous, cell-penetrating, leader sequence.
Human whole blood (WB) was obtained from multiple normal donors and incubated with [FITC]-AMTX-100 at μg/mL quantities in repeat experiments ex vivo.
Panels of monoclonal antibodies labeled with fluorescent dyes were used to phenotypically identify [FITC]-AMTX-100 penetrated WB cells including classical monocytes, non-classical monocytes, neutrophils, basophils, eosinophils, and T- and B-lymphocytes and NK cells (FIG. 4A-B). […]

[2] = system: animal models of lung, liver, sepsis, and metabolic syndrome induced inflammation; settings: intraperitoneal injections; cited from earlier work
[3] = Pharmacokinetic study, AMTX-100 in plasma by LC-MS; format: in vivo; settings: mice, sensitive to 2 ng/ml
[4] = Pharmacokinetics of [3H]-AMTX-100 after multiple routes of administration; format: in vivo, rat; settings: rats, [3H]-AMTX-100
Experimental: AMTX-100 was radiolabeled with 3H at lysine residues and injected into Sprague-Dawley rats in a single dose by seven different routes (intravenous, subcutaneous, topical [skin], intratracheal, intraduodenal, esophageal, and oral). The rats were evaluated at various time points, up to 120 hours, by: a) blood samples were taken for pharmacokinetics (PK) by cardiac puncture; b) rats were frozen and sectioned for QWBA and/or micro-auto-radiography and histology; and c) frozen sections were made and freeze dried and exposed to phosphor-storage imaging plates and tissue radioactivity in images was quantified as tissue: blood ratios.
For all PK studies, the following definitions were used: WB=whole blood; Plasma=whole blood depleted of red blood cells; WBCD=whole blood depleted of white blood cells in which the whole blood is passed over a Pall Acrodisc filter (about 60% efficient); WBCs=the cells which bind to, and are washed off, the Pall Acrodisc filter.

CSCC[C@@H]1NC(=O)[C@H](CC(C)C)NC(=O)[C@H](CCCCN)NC(=O)[C@H](CCC(N)=O)CC(=O)[C@H](CCCNC(=N)N)NC(=O)[C@H](CCCCN)NC(=O)[C@H](CCCNC(=N)N)NC(=O)[C@H](CCC(N)=O)NC(=O)[C@H](C(C)C)NC(=O)[C@@H](NC(=O)[C@@H]2CCCN2C(=O)[C@H](C)NC(=O)[C@H](CC(C)C)NC(=O)[C@H](CC(C)C)NC(=O)[C@H](C)NC(=O)[C@H](CC(C)C)NC(=O)[C@H](CC(C)C)NC(=O)[C@@H](NC(=O)[C@H](C)NC(=O)[C@@H]2CCCN2C(=O)[C@H](CC(C)C)NC(=O)[C@H](CC(C)C)NC(=O)[C@H](C)NC(=O)[C@@H](NC(=O)[C@H](C)NC(=O)[C@H](C)N)C(C)C)C(C)C)CSSC[C@@H](C(=O)O)NC(=O)[C@@H]2CCCN2C1=O [AMTX-100]
Leukocyte populations targeted [1]: leukocytes (classical and non-classical monocytes, neutrophils, basophils and eosinophils) | Efficacy in animal models of inflammation [2]: have shown efficacy | Detection of AMTX-100 in plasma depleted of RBCs and WBCs [3]: not possible to detect | Partition of radiation in blood [4]: partitioned to the WBCs
